Test results reported in patent publication US20100254940A1, “Compositions and Methods for Regulating an Immune Response in a Subject” (INNATE PHARMA, S.A., priority 2002, published 2010).
Several values for one entry are separate records, joined by “and”; a condition that tells them apart may be missing. Identical values can stand only once.

Columns and labels:
Vg9Vd2 T cells = assay: Peripheral Vg9Vd2 T cell expansion in cynomolgus monkeys by flow cytometry (BrHPP non-GLP studies); assay type: in vivo, cynomolgus monkeys (M. fascicularis); details: for Absolute increase of Vg9Vd2: individual animals
Experimental: • Group 1: 5 purpose bred healthy male cynomolgus monkeys (M. fascicularis), supplied by C.R.P. Le Vallon, Ferney S.E., Mahebourg, Mauritius. At the beginning of the study, body weights range from 3.7 to 4.6 kg. • Group 2: 10 purpose bred healthy cynomolgus monkeys (5 males and 5 females), supplied by C.R.P. Le Vallon. At the beginning of the study, body weights range from 1.8 to 3.5 kg and ages from 2 to 3 years.
• Group 1: animals were anaesthetised with intra-muscular injection of 6 mg/kg ZoletilND 100 (Tiletamine-Zolazepam, Virbac, Carros, France) before any injection or blood taking. • Group 2: injections and blood taking were performed on manually restrained non-anaesthetised animals. • 4-day BrHPP alone treatment (group 1): 2 animals received 1 mg/kg of BrHPP in 10 ml saline on day 0 (microflex infusion set introduced into the external saphenous vein) and then 4 mg/kg, 16 mg/kg and 32 mg/kg in 20 ml saline on days 1, 2 and 3 by the same way. (Duration of infusion: 10 to 15 min). • BrHPP/IL2 co-treatments (group 1): 5 animals received either 20 mg/kg once or 4 mg/kg (16.7 mg/kg or 3.3 mg/kg of BrHPP anionic form) 5 times daily of BrHPP in final 50 ml saline by the same way as above (duration of infusion: 30 min). IL2 (18 million UI per vial, Proleukin®, Chiron, US) was resuspended in 1 ml sterile water and diluted to 10 ml with 4% HSA for a final concentration of 1.8 million UI/ml. In a first cycle of treatment, all animals received the same dose of IL2 consisting of 5 days of twice daily injections of 0.9 million units IL2. In a second cycle of treatment, animals received subcutaneously the following IL2 treatment: 0.15 million units twice daily for 9 days (animal Z059), 0.3 million units twice daily for 5 days (Z135), 0.9 million units twice daily for 5 days (animal Z714) or 9 days (animal X973).
A single animal received 80 mg/kg (66.6 mg/kg anionic form) BrHPP+9 days of IL2 co-treatment consisting of a single daily subcutaneous injection of 0.6 million units. • BrHPP/IL2 co-treatments (group 2): BrHPP was diluted in saline to the appropriate final concentration (depending on the dose to inject and on the last recorded body weight) so as to inject always approximately 50 ml in 30 min (microflex infusion set introduced into cephalic or external saphenous vein). All animals received 0.6 million IU IL2 per day for 7 days. IL2 was administered subcutaneously as 2 separate injections of 0.3 million IU IL2 in sterile water, 8-hour apart. Control animals received IL2 only.
Twice weekly blood samples (1 to 4 ml) were withdrawn from femoral vessels/artery into EDTA containing tubes. Tubes were shipped overnight at room temperature (RT) before flow cytometry analyses.
Peripheral γδ lymphocytes were analysed twice weekly by flow cytometry on total monkey blood, after double staining with anti-CD3-PE antibody and anti-Vgamma9-FITC antibodies and/or anti Vd2 antibodies (CD3-PE: SP34 clone, BD Biosciences Pharmingen, Le Pont de Claix, France). Anti Vgamma 9, clone 7B6 is a monoclonal raised to human Vgamma 9 but that cross-reacts with cynomolgus cells. It was purified by affinity chromatography on protein A and coupled to FITC as previously described.
Briefly, 50 μl monkey blood is incubated 15 min at RT with 5 μl anti-CD3-PE and 6 μl anti-delta2-FITC or 10 μl anti-gamma9-FITC antibodies. Antibodies are washed with 3 ml 1×PBS, centrifuged for 4 min at 1300 rpm at RT and supernatant is discarded. Red cells are lysed with the OptiLyse C reagent (Immunotech-Beckman-Coulter, Marseilles, France) according to the manufacturer's instructions. At the final step, stained white blood cells are recovered by centrifugation and resuspended in 300 μl PBS+0.2% PFA.

[1] = Two-phase repeated dose toxicity study in cynomolgus monkeys, i.v. BrHPP; assay type: in vivo
Experimental: The objective of the first phase of this non GLP study was to determine BrHPP Maximum Tolerated Dose (MTD) in a group of two cynomolgus monkeys (one male, one female) by escalating doses. The second objective of this study was to characterize the toxicity of daily i.v. administration of Phosphostim for two weeks in two cynomolgus monkeys (one male, one female) at the MTD determined during the first phase of the study. The animals were treated at increasing dose-levels every 3 or 4 days (phase 1) and then at the estimated Maximum Tolerated Dose (MTD) daily for 2 weeks (phase 2).
A total of four cynomolgus monkeys (two males and two females) were divided into 2 groups and treated with BrHPP, by intravenous administration over a 1-hour infusion period as follows:
Group 1 (one male and one female) were administered BrHPP and/or Phosphostim (BrHPP, 200 mg) i.v. at increasing dose-levels (160, 400, 600, 900 and 1200 mg/kg) every 3 or 4 days. Anionic form BrHPP equilvalent to these doses are respectively: 96, 240, 360, 540 and 720 mg/kg. BrHPP was given as a solution after reconstitution in water for injection finally diluted in Ringer lactate under a dose volume of 4, 10 or 15 mL/kg.
Group 2 (one male and one female) were administered BrHPP i.v. daily at 900 mg/kg/day (540 mg/kg/day in anionic form BrHPP equivalent) for 2 weeks.
The animals were checked daily for mortality and clinical signs. Body weight was recorded pre-study and on the day of each administration in phase 1 or twice weekly throughout phase 2, and including on the day of necropsy for phase 2. Food consumption was estimated daily, starting at least 7 days pre-phase. Hematological, blood biochemical and/or peripheral blood lymphocyte subset analysis investigations were performed pre-study, on the day of each administration in phase 1, on day 7 in phase 2 and at the end of both phases. Electrocardiographic and blood pressure recordings were performed pre-study, on the day of each administration in phase 1 and on day 1 and at the end of treatment in phase 2. Blood, for determination of plasma levels of the test item, was sampled on days 1 and 14 in phase 2. On completion of each phase, animals were submitted to a complete macroscopic post-mortem examination and specified tissues preserved. In phase 2, selected body organs were weighed and microscopic examination of selected tissues was performed for all animals.

[2] = highest concentration (160 mg/kg), second injection + IL2

In the case of “3-(bromomethyl)-3-butanol-1-yl-diphosphate [BrHPP]”, the “% and absolute numbers of Vg9Vd2” value (Vg9Vd2 T cells; 0.2 mg/kg + IL2 7 days) is reported as “undistinguishable from the control animals”, the “peak of increase in peripheral γδ cells” value (Vg9Vd2 T cells; 20 mg/kg once or 4 mg/kg x 5 + IL2, group 1) is reported as 7 days and the “% and absolute numbers of Vg9Vd2” value (Vg9Vd2 T cells; 4 to 80 mg/kg + IL2, day 7) is reported as “A dose range effect was observed”. For the same substance, the expansion at recall (Vg9Vd2 T cells; first 20 mg, then 80 mg) was “expansions comparable to animals treated with 80 mg/kg at the first injection”, the expansion at recall (Vg9Vd2 T cells; first 80 mg/kg, then 20 mg/kg, vs first injection at 20 mg/kg) was “decreased expansion” and the “% of Vg9Vd2” value (Vg9Vd2 T cells; five daily injection of 0.2 mg/kg BrHPP alone, 4 monkeys) was “expansion was not significant”. For the same substance, the “Follow up of Vg9Vd2” value (Vg9Vd2 T cells; four daily injections 1, 4, 16, 32 mg/kg BrHPP alone, two animals) was “a decrease at day two post first injection”, the “increase of Vg9Vd2” value (Vg9Vd2 T cells; fourth injection of 80 mg/kg BrHPP and IL2, five animals) was “detectable increase of Vg9Vd2 although lower than that obtained in the third injection” and the “absolute numbers of Vg9Vd2 (mean)” value (Vg9Vd2 T cells; [2]) was 10,000 Vg9Vd2 cells/mm3. For the same substance, the “level of circulating Vg9Vd2 among circulating CD3 positive cells” value (Vg9Vd2 T cells; [2]) was “about 80%”, the “Absolute increase of Vg9Vd2” value (Vg9Vd2 T cells; same dose split in 5 daily injections of 4 mg/kg + IL2 5 days, 4 mg/kg) was 8 × and 18 × and the “amplification rate at the second injection vs first” value (Vg9Vd2 T cells; second single shot 20 mg/kg + IL2, animals with 5 daily 4 mg/kg at first injection) was “slightly higher amplification rate”. The “amplification rate in the second injection vs first” value (Vg9Vd2 T cells; second single shot 20 mg/kg + IL2, animals with single shot at first injection) was “slightly reduced amplification rate”, the “Absolute increase of Vg9Vd2” value (Vg9Vd2 T cells; single dose 20 mg/kg + IL2 5 days, 20 mg/kg) was 30 × and 40 × and the “increase of Vγ9Vδ2” value (Vg9Vd2 T cells; third cycle 80 mg/kg + IL2, control animal which received only IL2 in first two courses) was “around 40”. The “increase of Vγ9Vδ2 at the third injection” value (Vg9Vd2 T cells; third injection 80 mg/kg + IL2, animal 2034) was 28 ×, the “amplification of Vγ9Vδ2” value (Vg9Vd2 T cells; third injection 80 mg/kg + IL2, three other animals) was “lower than 40” and the “mean increase of peripheral γδ cell number” value (Vg9Vd2 T cells; total amount of 20 mg/kg BrHPP + IL2, day 7) was 24 fold. The macroscopic post-mortem examination ([1]; Phase 1 or Phase 2) was “No relevant findings”, the lymphocyte count ([1]; Phase 2, 900 mg/kg/day 2 weeks) was “increased lymphocyte count was noted in both animals” and the clinical signs ([1]; both treatment phases) was “no relevant clinical signs were noted”. The blood pressure ([1]; either phase) was “did not affect blood pressure”, the body weight evolution ([1]; either phase) was “had no effect on the body weight evolution” and the food consumption ([1]; either phase) was “unaffected”. The “hematological or blood chemistry changes” value ([1]; phase 1, 160-1200 mg/kg) was “No treatment related hematological or blood chemistry changes”, the mortality ([1]; phase 1: 160-1200 mg/kg every 3 or 4 days, phase 2: 900 mg/kg/day 2 weeks) was “No unscheduled death occurred” and the absolute thymus weight ([1]; phase 2, female) was “slightly lower absolute thymus weight”. For the same substance, the “microscopic findings, female” value ([1]; phase 2, female) was “Lymphoid depletion was seen in the thymus and mesenteric lymph node” and the “microscopic findings, male” value ([1]; phase 2, male) was “increase of follicular germinal center in the mesenteric lymph node”.
